Our source for the Ki, IC50 and inhibition values is US20240150293A1, “SPIROCYCLOHEXANE DERIVATIVES, PHARMACEUTICAL COMPOSITIONS CONTAINING THEM AND THEIR USES AS ANTI-APOPTOTIC INHIBITORS” (LES LABORATOIRES SERVIER, priority 2021, published 2024).

Usually Ki stands for a dissociation constant, usually derived from enzyme kinetics or from competition with a known ligand.

For assay [1], the target named is Cy5-labelled Mcl1 (amino acids 171-321) C286S protein (UniProtKB Q07820) (Homo sapiens (Human), UniProt Q07820, C286S). Put plainly: Inhibition of Mcl-1 by the fluorescence quenching assay (Example A, Method B). The format is binding. The note with it: for inhibition at 1 µM: read-out: Mcl-1 inhibition, % at a single concentration. Summed up:
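Eleven-point compound series incubated 2 h at room temperature with 1 nM Cy5-tagged protein and quencher-labelled PUMA peptide at 10, 20 or 400 nM in HEPES/NaCl/Tween 20, pH 7.4, 5% DMSO. IC50 for 50% fluorescence increase by 4-parameter fit, then Ki derived (complete cKi or estimated eKi).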

The test system of the next assay is NCI-H929 cell lines. Put plainly: In vitro cytotoxicity, CellTiter-Glo (CTG) assay (Example B, Method B). The format is cell-based. The note with it: Homo sapiens, NCI-H929, 48 h, NCI-H929 cells, 48 h incubation, read-out: C50. Summed up:
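ATP-based luminescence (CellTiter-Glo) after 48 h incubation at 37° C., 5% CO2 gave NCI-H929 viability. Eleven concentrations tested, highest final 30 μM, dispensed acoustically from 10 mM DMSO stocks; C50 defined as concentration reaching 50% viability.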
On the technique in general: Cellular ATP, detected with luciferase, serves as a proxy for viable cell number.

Sequence of Cy5-labelled Mcl1 (amino acids 171-321) C286S protein (Q07820 171-321 C286S): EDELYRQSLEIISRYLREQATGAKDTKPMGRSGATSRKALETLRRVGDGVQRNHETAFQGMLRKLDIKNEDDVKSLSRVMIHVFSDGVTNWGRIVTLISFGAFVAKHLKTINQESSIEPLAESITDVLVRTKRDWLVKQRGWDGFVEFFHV

Regarding `C[C@@H](COc1ccnc2c1[C@H](C)CCC2)C[C@H]1Cc2cc3c(cc2[C@]12CC[C@@](Nc1cccc(Cl)c1)(C(=O)OCOC(=O)C(C)(C)C)CC2)OCO3` [Example 942, [(2,2-dimethylpropanoyl)oxy]methyl (1r,4S,6′S)-4-(3-chloroanilino)-6′-[(2R)-2-methyl-3-{[(5R)-5-methyl-5,6,7,8-tetrahydroquinolin-4-yl]oxy}propyl]-6′,7′-dihydro-2′H-spiro[cyclohexane-1,5′-indeno[5,6-d][1,3]dioxole]-4-carboxylate], the Ki in assay [1] came out at 15.5 nM. Moreover, the IC50 with NCI-H929 cell lines came out at 222 nM.
As to `COC(=O)OC(C)OC(=O)[C@]1(Nc2cccc(Cl)c2)CC[C@@]2(CC1)c1cc3c(cc1C[C@@H]2C[C@@H](C)COc1ccnc2c1[C@H](C)CCC2)OCO3` (stereo partly drawn) [Example 943, 1-[(methoxycarbonyl)oxy]ethyl (1r,4S,6′S)-4-(3-chloroanilino)-6′-[(2R)-2-methyl-3-{[(5R)-5-methyl-5,6,7,8-tetrahydroquinolin-4-yl]oxy}propyl]-6′,7′-dihydro-2′H-spiro[cyclohexane-1,5′-indeno[5,6-d][1,3]dioxole]-4-carboxylate], in assay [1], the inhibition constant (Ki) came to 1 nM. For the same compound, in the assay on NCI-H929 cell lines, the IC50 came out at 228 nM.
With `CC(C)OC(=O)OC(C)OC(=O)[C@]1(Nc2cccc(Cl)c2)CC[C@@]2(CC1)c1cc3c(cc1C[C@@H]2C[C@@H](C)COc1ccnc2c1[C@H](C)CCC2)OCO3` (stereo partly drawn) [Example 944, 1-({[(propan-2-yl)oxy]carbonyl}oxy)ethyl (1r,4S,6′S)-4-(3-chloroanilino)-6′-[(2R)-2-methyl-3-{[(5R)-5-methyl-5,6,7,8-tetrahydroquinolin-4-yl]oxy}propyl]-6′,7′-dihydro-2′H-spiro[cyclohexane-1,5′-indeno[5,6-d][1,3]dioxole]-4-carboxylate], the inhibition at 1 µM in assay [1] turned out to be 13.9%. The IC50 in the assay on NCI-H929 cell lines was found to be 2130 nM.
Turning to `CC(OC(=O)OC1CCCC1)OC(=O)[C@]1(Nc2cccc(Cl)c2)CC[C@@]2(CC1)c1cc3c(cc1C[C@@H]2C[C@@H](C)COc1ccnc2c1[C@H](C)CCC2)OCO3` (stereo partly drawn) [Example 945, 1-{[(cyclopentyloxy)carbonyl]oxy}ethyl (1r,4S,6′S)-4-(3-chloroanilino)-6′-[(2R)-2-methyl-3-{[(5R)-5-methyl-5,6,7,8-tetrahydroquinolin-4-yl]oxy}propyl]-6′,7′-dihydro-2′H-spiro[cyclohexane-1,5′-indeno[5,6-d][1,3]dioxole]-4-carboxylate], the Ki in assay [1] is 162 nM. Also, the IC50 in the assay with NCI-H929 cell lines turned out to be 24700 nM.
Taken in the same sequence, the figures for `COC(=O)OCOC(=O)[C@]1(Nc2cccc(Cl)c2)CC[C@@]2(CC1)c1cc3c(cc1C[C@@H]2C[C@@H](C)COc1ccnc2c1[C@H](C)CCC2)OCO3` [Example 946, [(methoxycarbonyl)oxy]methyl (1r,4S,6′S)-4-(3-chloroanilino)-6′-[(2R)-2-methyl-3-{[(5R)-5-methyl-5,6,7,8-tetrahydroquinolin-4-yl]oxy}propyl]-6′,7′-dihydro-2′H-spiro[cyclohexane-1,5′-indeno[5,6-d][1,3]dioxole]-4-carboxylate] were 11 nM and 34.2 nM.
Consider `COCCNC(=O)OC(C)OC(=O)[C@]1(Nc2cccc(Cl)c2)CC[C@@]2(CC1)c1cc3c(cc1C[C@@H]2C[C@@H](C)COc1ccnc2c1[C@H](C)CCC2)OCO3` (stereo partly drawn) [Example 947, 1-{[(2-methoxyethyl)carbamoyl]oxy}ethyl (1r,4S,6′S)-4-(3-chloroanilino)-6′-[(2R)-2-methyl-3-{[(5R)-5-methyl-5,6,7,8-tetrahydroquinolin-4-yl]oxy}propyl]-6′,7′-dihydro-2′H-spiro[cyclohexane-1,5′-indeno[5,6-d][1,3]dioxole]-4-carboxylate], for which the Ki in assay [1] came out at 0.256 nM. Moreover, the IC50 in the assay with NCI-H929 cell lines was 604 nM.
For `CC(OC(=O)N1CCOCC1)OC(=O)[C@]1(Nc2cccc(Cl)c2)CC[C@@]2(CC1)c1cc3c(cc1C[C@@H]2C[C@@H](C)COc1ccnc2c1[C@H](C)CCC2)OCO3` (stereo partly drawn) [Example 948, 1-({(1r,4S,6′S)-4-(3-chloroanilino)-6′-[(2R)-2-methyl-3-{[(5R)-5-methyl-5,6,7,8-tetrahydroquinolin-4-yl]oxy}propyl]-6′,7′-dihydro-2′H-spiro[cyclohexane-1,5′-indeno[5,6-d][1,3]dioxole]-4-carbonyl}oxy)ethyl morpholine-4-carboxylate], in that order: 64.9 nM and 7120 nM.
For `CCN(CC)C(=O)OC(C)OC(=O)[C@]1(Nc2cccc(Cl)c2)CC[C@@]2(CC1)c1cc3c(cc1C[C@@H]2C[C@@H](C)COc1ccnc2c1[C@H](C)CCC2)OCO3` (stereo partly drawn) [Example 949, 1-[(diethylcarbamoyl)oxy]ethyl (1r,4S,6′S)-4-(3-chloroanilino)-6′-[(2R)-2-methyl-3-{[(5R)-5-methyl-5,6,7,8-tetrahydroquinolin-4-yl]oxy}propyl]-6′,7′-dihydro-2′H-spiro[cyclohexane-1,5′-indeno[5,6-d][1,3]dioxole]-4-carboxylate], the inhibition at 1 µM in assay [1] worked out at 13.6%. For the same compound, the IC50 in the assay with NCI-H929 cell lines was over 30000 nM.
For `CCN(CC)C(=O)OCOC(=O)[C@]1(Nc2cccc(Cl)c2)CC[C@@]2(CC1)c1cc3c(cc1C[C@@H]2C[C@@H](C)COc1ccnc2c1[C@H](C)CCC2)OCO3` [Example 950, [(diethylcarbamoyl)oxy]methyl (1r,4S,6′S)-4-(3-chloroanilino)-6′-[(2R)-2-methyl-3-{[(5R)-5-methyl-5,6,7,8-tetrahydroquinolin-4-yl]oxy}propyl]-6′,7′-dihydro-2′H-spiro[cyclohexane-1,5′-indeno[5,6-d][1,3]dioxole]-4-carboxylate], in that order: 7.1% and over 30000 nM.
Take `C[C@@H](COc1ccnc2c1[C@H](C)CCC2)C[C@H]1Cc2cc3c(cc2[C@]12CC[C@@](Nc1cccc(Cl)c1)(C(=O)OCOP(=O)(OC(C)(C)C)OC(C)(C)C)CC2)OCO3` [Example 951, [(di-tert-butoxyphosphoryl)oxy]methyl (1r,4S,6′S)-4-(3-chloroanilino)-6′-[(2R)-2-methyl-3-{[(5R)-5-methyl-5,6,7,8-tetrahydroquinolin-4-yl]oxy}propyl]-6′,7′-dihydro-2′H-spiro[cyclohexane-1,5′-indeno[5,6-d][1,3]dioxole]-4-carboxylate]: the inhibition constant (Ki) in assay [1] is 36.9 nM. Also, the IC50 with NCI-H929 cell lines was 1790 nM.
Taken in the same sequence, the figures for `C[C@@H](COc1ccnc2c1[C@H](C)CCC2)C[C@H]1Cc2cc3c(cc2[C@]12CC[C@@](Nc1cccc(Cl)c1)(C(=O)OCOP(=O)(O)O)CC2)OCO3` [Example 952, (phosphonooxy)methyl (1r,4S,6′S)-4-(3-chloroanilino)-6′-[(2R)-2-methyl-3-{[(5R)-5-methyl-5,6,7,8-tetrahydroquinolin-4-yl]oxy}propyl]-6′,7′-dihydro-2′H-spiro[cyclohexane-1,5′-indeno[5,6-d][1,3]dioxole]-4-carboxylate] were 0.371 nM and 96 nM.
For `C[C@@H](COc1ccnc2c1[C@H](C)CCC2)C[C@H]1Cc2cc3c(cc2[C@]12CC[C@@](Nc1cccc(Cl)c1)(C(=O)NS(C)(=O)=O)CC2)OCO3` [Example 957, (1r,4S,6′S)-4-(3-chloroanilino)-N-(methanesulfonyl)-6′-[(2R)-2-methyl-3-{[(5R)-5-methyl-5,6,7,8-tetrahydroquinolin-4-yl]oxy}propyl]-6′,7′-dihydro-2′H-spiro[cyclohexane-1,5′-indeno[5,6-d][1,3]dioxole]-4-carboxamide], in that order: 6.24 nM and 4700 nM.
For `C[C@@H](COc1ccnc2c1[C@H](C)CC[C@H]2O)C[C@H]1Cc2cc3c(cc2[C@]12CC[C@@](Nc1cccc(Cl)c1)(C(=O)O)CC2)OCO3` [Example 959, (1r,4S,6′S)-4-(3-chloroanilino)-6′-[(2R)-3-{[(5R,8R)-8-hydroxy-5-methyl-5,6,7,8-tetrahydroquinolin-4-yl]oxy}-2-methylpropyl]-6′,7′-dihydro-2′H-spiro[cyclohexane-1,5′-indeno[5,6-d][1,3]dioxole]-4-carboxylic acid], in that order: 0.0117 nM and 28.7 nM.
As to `C[C@@H](COc1ccnc2c1[C@H](C)CC[C@H]2C)C[C@H]1Cc2cc3c(cc2[C@]12CC[C@@](Nc1cccc(Cl)c1)(C(=O)O)CC2)OCO3` [Example 960, (1r,4S,6′S)-4-(3-chloroanilino)-6′-[(2R)-3-{[(5R,8R)-5,8-dimethyl-5,6,7,8-tetrahydroquinolin-4-yl]oxy}-2-methylpropyl]-6′,7′-dihydro-2′H-spiro[cyclohexane-1,5′-indeno[5,6-d][1,3]dioxole]-4-carboxylic acid], in assay [1], the Ki is 0.0834 nM. Further, in the assay on NCI-H929 cell lines, the IC50 stood at 77.5 nM.
For `C[C@@H](COc1ccnc2c1[C@H](C)CC[C@H]2F)C[C@H]1Cc2cc3c(cc2[C@]12CC[C@@](Nc1cccc(Cl)c1)(C(=O)O)CC2)OCO3` [Example 961, (1r,4S,6′S)-4-(3-chloroanilino)-6′-[(2R)-3-{[(5R,8R)-8-fluoro-5-methyl-5,6,7,8-tetrahydroquinolin-4-yl]oxy}-2-methylpropyl]-6′,7′-dihydro-2′H-spiro[cyclohexane-1,5′-indeno[5,6-d][1,3]dioxole]-4-carboxylic acid], in that order: 0.0308 nM and 98.8 nM.
Taken in the same sequence, the figures for `C[C@@H](COc1ccnc2c1[C@H](C)CC[C@H]2O)C[C@H]1Cc2cc3c(cc2[C@]12CC[C@@](Nc1cccc(Cl)c1)(C(=O)O)CC2)OCCO3` [Example 962, (1r,4S,7′S)-4-(3-chloroanilino)-7′-[(2R)-3-{[(5R,8R)-8-hydroxy-5-methyl-5,6,7,8-tetrahydroquinolin-4-yl]oxy}-2-methylpropyl]-2′,3′,7′,8′-tetrahydrospiro[cyclohexane-1,6′-indeno[5,6-b][1,4]dioxine]-4-carboxylic acid] were 0.0109 nM and 42.8 nM.
